Measurements taken from PubChem BioAssay (NCI).
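These data come from cells grown in 96-well plates and exposed to compound for 48 hours at five concentrations. The concentration for 50% growth inhibition is given as GI50. The concentration for full growth arrest is given as TGI.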

Columns and labels:
Experiment in all cases: inhibition of tumour cell growth, NCI panel, 48 h
DU-145 prostate = test system: DU-145 prostate
HCT-15 colon = test system: HCT-15 colon
MDA-MB-231 breast = test system: MDA-MB-231 breast
NCI-H460 lung = test system: NCI-H460 lung
OVCAR-5 ovarian = test system: OVCAR-5 ovarian
SN12C renal = test system: SN12C renal
SW-620 colon = test system: SW-620 colon
T-47D breast = test system: T-47D breast
TK-10 renal = test system: TK-10 renal
UO-31 renal = test system: UO-31 renal

| SMILES | GI50 (DU-145 prostate) [µM] | TGI (DU-145 prostate) [µM] | GI50 (HCT-15 colon) [nM] | TGI (HCT-15 colon) [µM] | GI50 (MDA-MB-231 breast) [nM] | TGI (MDA-MB-231 breast) [µM] | GI50 (NCI-H460 lung) [nM] | TGI (NCI-H460 lung) [µM] | GI50 (OVCAR-5 ovarian) [nM] | TGI (OVCAR-5 ovarian) [µM] | GI50 (SN12C renal) [nM] | TGI (SN12C renal) [µM] | GI50 (SW-620 colon) [nM] | TGI (SW-620 colon) [µM] | GI50 (T-47D breast) [nM] | TGI (T-47D breast) [µM] | GI50 (TK-10 renal) [µM] | TGI (TK-10 renal) [µM] | GI50 (UO-31 renal) [nM] | TGI (UO-31 renal) [µM] |
| --- | --- | --- | --- | --- | --- | --- | --- | --- | --- | --- | --- | --- | --- | --- | --- | --- | --- | --- | --- | --- |
| CN(C)CCCN(CCC1CCCCC1)CCC1CCCCC1 | 5.56 | 17.7 | 1460 | 3.59 | 1620 | 3.97 | 1790 | 3.45 | 2700 | 7.97 | 9790 | 22.9 | 1750 | 3.31 | 1570 | 3.52 | 2.5 | 8.92 | 1380 | 4.24 |
| O=c1oc2ccc(I)cc2c(=O)n1-c1ccc(F)cc1F | 3.57 | 58.5 | 2710 | 11.4 | 1890 | 6.01 | 2800 | 12.8 | 3960 | > 100 | 2360 | 8.91 | 2730 | 11.6 | 1990 | 6 | 4.43 | 10.6 | 1480 | 5.71 |
| CO[C@H]1C=CO[C@@]2(C)Oc3c(C)c(O)c4c(O)c(c(CN5CCN(C)CC5)c(O)c4c3C2=O)NC(=O)/C(C)=C\C=C[C@H](C)[C@H](O)C(C)[C@@H](O)C(C)[C@H](OC(C)=O)[C@@H]1C (stereo not given in full) | – | > 100 | – | > 100 | – | > 100 | – | > 100 | – | > 100 | – | > 93.9 | – | > 100 | – | > 100 | – | > 100 | – | > 94.4 |
| Cc1c2ccn(O)cc2c(C)c2c1nc1ccccc12 | – | > 100 | – | > 100 | – | > 100 | – | 37.9 | – | 53.5 | – | > 100 | – | > 100 | – | 8.93 | – | > 66.1 | – | 27.5 |
| CC1=C2CC(C)(C)/C=C\C(=O)/C(C)=C\C3=C[C@H](C)C[C@]3(O2)C1=O | – | 12.1 | – | 2.53 | – | 9.33 | – | 14 | – | 3.37 | – | 10.2 | – | 1.49 | – | 1.65 | – | 5 | – | 2.61 |
| CC1(C)S[C@@H]2[C@H](N3C(=O)c4ccccc4C3=O)CN2[C@H]1NC(=O)N[C@@H]1N2C[C@@H](N3C(=O)c4ccccc4C3=O)[C@H]2SC1(C)C | – | > 100 | – | > 100 | – | > 100 | – | > 100 | – | > 100 | – | > 100 | – | > 100 | – | > 100 | – | > 100 | – | > 100 |
| COc1cc2c(c(OC)c1OC)-c1ccc(O)cc1[C@@H](NC(C)=O)CC2 | 0.0365 | 0.168 | 123 | > 100 | 68.9 | > 100 | 36.3 | > 34.9 | 215 | > 100 | 89.7 | > 100 | 40.9 | > 100 | 49.5 | > 100 | 0.0406 | > 100 | 279 | > 51.2 |
| Nc1c(C(=O)Nc2ccccc2)sc2nc3c(cc12)CCCCC3 | 0.619 | 31.4 | 421 | > 100 | 1620 | 42 | 460 | > 100 | 1060 | > 100 | 1880 | > 100 | 443 | > 100 | 834 | 80.6 | 2.39 | 30.3 | 917 | > 100 |
| C=C(CN1CCN(c2ccc(C(F)(F)F)cc2)CC1)c1ccc(C(=O)Nc2ccccc2N)cc1 | 21 | > 100 | > 100000 | > 100 | 3600 | > 71.3 | 3440 | > 100 | > 100000 | > 100 | 6370 | > 100 | > 78800 | > 100 | 21800 | > 100 | 21 | > 82.4 | 967 | > 73.1 |
| C=C1CC2(CC(c3ccccc3Cl)OC(c3ccccc3Cl)C2)OC1=O (stereo not given) | – | 14.4 | – | 5.58 | – | 3.45 | – | 12.6 | – | 16.5 | – | 5.75 | – | 5.21 | – | 3.22 | – | 9.03 | – | 11.7 |
| O=C(O)[C@H](Cc1c[nH]c2ccccc12)N1C(=O)c2ccccc2C1=O | – | > 100 | – | > 100 | – | > 100 | – | > 100 | – | > 100 | – | > 100 | – | > 100 | – | > 100 | – | > 100 | – | > 100 |
| CC/C=C\C[C@H](F)C/C=C1/C(=O)C=C[C@@H]1C/C=C\CCCC(=O)OC | 3.17 | 9.81 | 1190 | 4.42 | 1910 | 6.7 | 1440 | 4.11 | 3350 | 12.4 | 1250 | 3.24 | 1620 | 4.73 | 1420 | 5.57 | 7.09 | 16.2 | 2130 | 9.72 |
